Assay results published in paper PMC7359024, “Synthesis, Structure–Activity Relationship, and Mechanistic Studies of Aminoquinazolinones Displaying Antimycobacterial Activity” (ACS Infectious Diseases, 2020).
In brackets after ≈: the same amount, converted by molar mass. Read-outs that look alike come from different tables or passages of the source.

Legend:
[1] = system: Mtb H37Rv strain; assay: MIC90 determination in GASTE-Fe media (broth microdilution); assay type: cell-based, Mycobacterium tuberculosis; parameters: fold loss in activity/potency (MIC90): reference not given here
[2] = physchem; assay type: physicochemical; details: for solubility: kinetic solubility, pH 7.4, HPLC method
Method: The kinetic solubility assay was performed using a miniaturised shake flask method. 10 mM stock solutions of each of the test compounds were used to prepare calibration standards (10-220μM) in DMSO. The same 10mM stock solutions were accurately dispensed in duplicate into 96-well plates and the DMSO dried down (MiVac GeneVac, 90 min, 37 °C). Thereafter, the samples were reconstituted (200 µM) in phosphate buffered saline (pH 7.4) and shaken (20 hours, 25 °C). The solutions were filtered and analysed by means of HPLC -DAD (Agilent 1200 Rapid Resolution HPLC with a diode array detector). […]

[3] = assay type: in vitro ADME; details: for Metabolic Stability H (% Rem.): human liver microsomes; for Metabolic Stability M (% Rem.): mouse liver microsomes; for Metabolic Stability R (% Rem.): rat liver microsomes
Method: 3.2. Microsomal stability
The metabolic stability assay was performed in duplicate in a 96-well micro titre plate. The test compounds (0.1 μM) were incubated individually in mouse, rat and pooled human liver microsomes ((final protein concentration of 0.4 mg/mL; XenoTech, Lenexa, KS ), suspended in 0.1M phosphate buffer (pH 7.4) at 37 °C for predetermined time points, in the presence and absence of the cofactor NADPH (1 mM). Reactions were quenched by adding ice cold acetonitrile containing internal standard (carbamazepine, 0.0236 µg/mL). T he samples were centrifuged and test compound in the supernatant were analysed by means of LC -MS/MS (Agilent Rapid Resolution HPLC, AB SCIEX 4500 MS ). The relative loss of parent compound over time was monitored and plots (concentration vs. time) were prepared per compound to determine the first order rate constant for compound depletion. This was in turn used to calculate half-life, in vitro intrinsic clearance and in vivo hepatic extraction ratio. Metabolite searches were not conducted during the metabolic stability assay. 5

[4] = in vitro; details: Chinese hamster
[5] = Mtb H37Rv, replicating conditions, GASTE-Fe media, read 14 days after incubation, read-out: MIC90 GASTE-Fe
[6] = Mycobacterium tuberculosis, H37RV, 336 h, Mtb H37Rv, replicating conditions, GASTE-Fe media, read 14 days after incubation, read-out: MIC90 GASTE-Fe
[7] = Mycobacterium tuberculosis, H37RV, 336 h, read-out: MIC90 GAST-Fe

| Structure (SMILES) | solubility ([2]; 25 °C, pH 7.4, aqueous buffer) | solubility [2] | MIC90 [1, 6] | Metabolic Stability H (% Rem.) [3] | Metabolic Stability M (% Rem.) [3] | Metabolic Stability R (% Rem.) [3] | MIC90 [1, 7] | also measured |
| --- | --- | --- | --- | --- | --- | --- | --- | --- |
| NC[C@H]1O[C@H](O[C@H]2[C@H](O)[C@@H](O[C@H]3O[C@H](CO)[C@@H](O)[C@H](N)[C@H]3O)[C@H](N)C[C@@H]2N)[C@H](O)[C@@H](O)[C@@H]1O [Kanamycin, reference compound] | – | – | – | – | – | – | – | MIC90 [1, 5]: 1.562 µM (≈ 0.757 µg/mL) |
| CNC(=O)c1cncc(-c2ccc3nc(N)n(-c4ccc(C(F)(F)F)cc4)c(=O)c3c2)c1 [compound 12] | 40 µM (≈ 17.6 µg/mL) | 39 µM (≈ 17.1 µg/mL) | 9.22 µM (≈ 4.05 µg/mL) | 85 % Rem. | 75 % Rem. | 85 % Rem. | – | fold loss in activity/potency (MIC90) [1]: 10 fold |
| Nc1nc2ccc(-c3cncc(C(=O)N4CCOCC4)c3)cc2c(=O)n1-c1ccc(C(F)(F)F)cc1 [compound 17, 2-Amino-6-(5-(morpholine-4-carbonyl)pyridin-3-yl)-3-(4-(trifluoromethyl)phenyl)quinazolin-4(3H)-one] | – | – | 83 µM (≈ 41.1 µg/mL) | – | – | – | – | fold loss in activity/potency (MIC90) [1]: 15 fold |
| COc1cncc(-c2ccc3nc(N)n(-c4ccc(C(F)(F)F)cc4)c(=O)c3c2)c1 [compound 24] | 40 µM (≈ 16.5 µg/mL) | – | – | 72/-/- % Rem. | – | – | – | IC50 [4]: > 100 µM |
| COc1cccc(-c2ccc3nc(N)n(-c4ccc(C(F)(F)F)cc4)c(=O)c3c2)c1 [compound 25] | – | – | 10 µM (≈ 4.11 µg/mL) | – | – | – | – | – |
| CC(C)(C)c1cccc(-c2ccc3nc(N)n(-c4ccc(C(F)(F)F)cc4)c(=O)c3c2)c1 [compound 26] | – | – | 10 µM (≈ 4.37 µg/mL) | – | – | – | – | IC50 [4]: > 100 µM |
| Nc1nc2ccc(-c3cccc(Cl)c3)cc2c(=O)n1-c1ccc(C(F)(F)F)cc1 [compound 29] | < 5 µM | – | 0.675 µM (≈ 0.281 µg/mL) | 73/-/- % Rem. | – | – | – | – |
| NC(=O)c1cccc(-c2ccc3c(=O)n(-c4ccc(C(F)(F)F)cc4)c(N)nc3c2)c1 [compound 33] | 58 µM (≈ 24.6 µg/mL) | – | 1.22 µM (≈ 0.518 µg/mL) | 96 % Rem. | 92 % Rem. | 93 % Rem. | – | fold improvement in solubility ([2]; pH 7.4, relative to comparator analogue): 10 fold |
| C[S+]([O-])c1cccc(-c2ccc3nc(N)n(-c4cccc(C(F)(F)F)c4)c(=O)c3c2)c1 (stereo not shown) [compound 34] | > 100 µM | 164 µM (≈ 72.7 µg/mL) | – | 50 % Rem. | 51 % Rem. | 58 % Rem. | 14.8 µM (≈ 6.56 µg/mL) | – |
| C[S+]([O-])c1cccc(-c2ccc3nc(N)n(-c4ccccc4)c(=O)c3c2)c1 (stereo not shown) [compound 35] | – | – | – | – | – | – | 33 µM (≈ 12.4 µg/mL) | MIC90 ([1]; read-out: MIC90 GAST-Fe): 33.4 µM (≈ 12.5 µg/mL) |
| Cc1ccc(-n2c(N)nc3ccc(-c4cccc([S+](C)[O-])c4)cc3c2=O)cc1 (stereo not shown) [compound 36] | > 100 µM | 172 µM (≈ 67 µg/mL) | – | 99 % Rem. | 71 % Rem. | 68 % Rem. | 3.09 µM (≈ 1.2 µg/mL) | – |
| CS(=O)(=O)c1cccc(-c2ccc3ncn(-c4ccc(C(F)(F)F)cc4)c(=O)c3c2)c1 [compound 38, 6-(3-(Methylsulfonyl)phenyl)-3-(4-(trifluoromethyl)phenyl)quinazolin-4(3H)-one] | < 5 µM | – | 2.96 µM (≈ 1.32 µg/mL) | – | – | – | – | fold loss in activity/potency (MIC90) [1]: 10 fold |
| CN(C)c1nc2ccc(-c3cccc([S+](C)[O-])c3)cc2c(=O)n1-c1ccc(C(F)(F)F)cc1 (stereo not shown) [compound 42, 2-(Dimethylamino)-6-(3-(methylsulfinyl)phenyl)-3-(4-(trifluoromethyl)phenyl)quinazolin-4(3H)-one] | < 5 µM | – | 2.89 µM (≈ 1.36 µg/mL) | 82 % Rem. | 80 % Rem. | 86 % Rem. | – | – |
| CN(C)c1nc2ccc(-c3cccc(S(C)(=O)=O)c3)cc2c(=O)n1-c1ccc(C(F)(F)F)cc1 [compound 43, 2-(Dimethylamino)-6-(3-(methylsulfonyl)phenyl)-3-(4-(trifluoromethyl)phenyl)quinazolin-4(3H)-one] | 21.6 µM (≈ 10.5 µg/mL) | – | > 125 µM | 85 % Rem. | 90 % Rem. | 94 % Rem. | – | MIC90 [1, 5]: >125 µM |
| C[S+]([O-])c1cccc(-c2ccc3nc(N)n(-c4ccc(C(F)(F)F)nc4)c(=O)c3c2)c1 (stereo not shown) [compound 47, 2-Amino-6-(3-(methylsulfinyl)phenyl)-3-(6-(trifluoromethyl)pyridin-3-yl)quinazolin-4(3H)-one] | < 5 µM | – | – | 93 % Rem. | 93 % Rem. | 99 % Rem. | 0.922 µM (≈ 0.41 µg/mL) | – |
| C[S+]([O-])c1cccc(-c2ccc3nc(N)n(-c4ccccc4C(F)(F)F)c(=O)c3c2)c1 (stereo not shown) [compound 48] | – | – | – | – | – | – | > 125 µM | – |
| C[S+]([O-])c1cccc(-c2ccc3nc(N)n(-c4ccc(F)cc4)c(=O)c3c2)c1 (stereo not shown) [compound 49] | 37.8 µM (≈ 14.9 µg/mL) | 38 µM (≈ 15 µg/mL) | – | 82 % Rem. | 96 % Rem. | 93 % Rem. | 4.84 µM (≈ 1.9 µg/mL) | – |
| C[S+]([O-])c1cccc(-c2ccc3nc(N)n(-c4ccccc4F)c(=O)c3c2)c1 (stereo not shown) [compound 50] | – | – | – | – | – | – | 67 µM (≈ 26.4 µg/mL) | – |
| C[S+]([O-])c1cccc(-c2ccc3nc(N)n(-c4ccc(S(C)(=O)=O)cc4)c(=O)c3c2)c1 (stereo not shown) [compound 51] | – | – | – | – | – | – | > 125 µM | – |
| C[S+]([O-])c1cccc(-c2ccc3nc(N)n(-c4ccc(O)cc4)c(=O)c3c2)c1 (stereo not shown) [compound 52] | – | – | – | – | – | – | > 125 µM | – |
| COc1ccc(-n2c(N)nc3ccc(-c4cccc([S+](C)[O-])c4)cc3c2=O)cc1 (stereo not shown) [compound 53] | > 100 µM | 128 µM (≈ 51.9 µg/mL) | – | 100 % Rem. | 99 % Rem. | 103 % Rem. | 6.75 µM (≈ 2.74 µg/mL) | – |
| C[S+]([O-])c1cccc(-c2ccc3nc(N)n(-c4ccc(C#N)cc4)c(=O)c3c2)c1 (stereo not shown) [compound 54] | 16.3 µM (≈ 6.53 µg/mL) | 16 µM (≈ 6.41 µg/mL) | – | 92 % Rem. | 91 % Rem. | 98 % Rem. | 9.28 µM (≈ 3.72 µg/mL) | – |
| C[S+]([O-])c1cccc(-c2ccc3nc(N)n(-c4cccc(C#N)c4)c(=O)c3c2)c1 (stereo not shown) [compound 55] | – | – | – | – | – | – | 43 µM (≈ 17.2 µg/mL) | – |
| C[S+]([O-])c1cccc(-c2ccc3nc(N)n(C4CCC(F)(F)CC4)c(=O)c3c2)c1 (stereo not shown) [compound 56] | > 100 µM | 125 µM (≈ 52.2 µg/mL) | – | 95 % Rem. | 83 % Rem. | 81 % Rem. | 45.7 µM (≈ 19.1 µg/mL) | – |
| C[S+]([O-])c1cccc(-c2ccc3nc(N)n(C4CCC(C(F)(F)F)CC4)c(=O)c3c2)c1 (stereo not shown) [compound 57] | – | – | – | – | – | – | 2.75 µM (≈ 1.24 µg/mL) | – |
| C[S+]([O-])c1cccc(-c2ccc3nc(N)n(Cc4ccc(C(F)(F)F)cc4)c(=O)c3c2)c1 (stereo not shown) [compound 58] | > 100 µM | 104 µM (≈ 47.6 µg/mL) | – | 52 % Rem. | 69 % Rem. | 61 % Rem. | > 31 µM | – |
